53 molecules from PubChem BioAssay (NCI) can be followed below.

Holding throughout (assay): DTP human tumour cell line panel, 48 h
For assay [1], the system named is MOLT-4 leukemia.
Assay [2] relates to RXF 393 renal.
The test system of assay [3] is MDA-N.
Assay [4] has as its system SK-MEL-5 melanoma.

Structures are written as SMILES. Values joined by “and” are separate entries in the source; they are usually repeats but may differ in a detail not shown here. Equal values may be shown once.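 Following 48 hours of exposure in 96-well plates, responses at five concentrations were used to interpolate endpoints linearly. The concentration for 50% growth inhibition is given as GI50. TGI: total growth inhibition.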 *1 amine or outer side, *2 acyl side, *3 side chain or, on linkers, in order; H or OH if unused. Where a SMILES comes first, the peptide text is derived from it. The star is where a group is joined. γGlu = O=C(O)[CH](CCC(=O)[*:2])N[*:1]; Cbz = O=C(OCc1ccccc1)*; NHOH = ON* A value given as a limit tells only on which side of the number the result lay.

As for `CCOP(=O)(OCC)/C(C#N)=C/c1nc[nH]c1C`, the TGI in assay [1], in assay [2], in assay [3] and in assay [4] was above 100 µM each time.
Consider `O=C1c2cccnc2S(=O)(=O)N1c1ccc(Br)cc1`, for which the TGI in assay [1], in assay [2], in assay [3] and in assay [4] was above 100 µM throughout.
As for `CCN(CC)c1c(-c2c(OC(C)C)c(=O)c2=O)c(=O)n2ccsc2c1OC(C)=O`, the TGI in assay [1], in assay [3] and in assay [4] was above 100 µM each time.
Consider `CC(=O)N1N=C(c2ccccc2)NC(=O)C1c1cc(C)c(O)c(C)c1` (configuration not stated), for which the TGI (in general, the concentration at which net growth stops) in assay [1] is above 100 µM; in assay [2], 31.2 µM; in assay [3], above 100 µM; in assay [4], 56.4 µM.
For `C[C@]12CCC(=O)C=C1CC[C@@H]1[C@@H]2CC[C@]2(C)C(=O)/C(=C/c3ccc([N+](=O)[O-])cc3)C[C@@H]12`, the TGI in assay [1] is above 100 µM; in assay [2] it was 73.5 µM; in assay [3], above 100 µM; in assay [4], above 100 µM.
With `c1ccc(CCCN2C3CCC2CN(CCOC(c2ccccc2)c2ccccc2)C3)cc1`, the TGI in assay [1] was determined as 25.3 µM; in assay [3], 25.9 µM; in assay [4], 11.8 µM.
As to `CCOC(=O)c1nc(SC)sc1NC(=O)c1ccc(OC)cc1`, the TGI in assay [1], in assay [2], in assay [3] and in assay [4] was above 100 µM in each case.
For `CCOC(=O)CCCN`, the TGI in assay [1], in assay [2], in assay [3] and in assay [4] was above 100 µM throughout.
For `CCCCCCCCCCCCCOCCOCCOCCCCC(O)CCCCCCCCCC1=C[C@H](C)OC1=O` (some centres not stated), the TGI amounted to 37.2 µM in assay [1], 47.5 µM in assay [2], 45.3 µM in assay [3] and 30.2 µM in assay [4].
Turning to `NC(=O)N/N=C(\Cc1cc(=O)oc2cc(O)ccc12)C(=O)Nc1ccccc1C(N)=O`, the TGI in assay [1], in assay [2], in assay [3] and in assay [4] was above 100 µM each time.
Consider `CN(C)CC1CCC/C(=C\c2ccc(Cl)c(Cl)c2)C1=O` (configuration not stated), for which the TGI in assay [1] came out at 4.83 µM; in assay [3], 12.7 µM; in assay [4], 22.7 µM.
Turning to `CCOC(=O)c1ccc(-c2onc(C)c2Br)[nH]1`, the TGI in assay [1] was above 100 µM; in assay [2], 96.1 µM; in assay [3], above 100 µM; in assay [4], above 100 µM.
`COc1ccc(OC)c([N+](=O)[O-])c1-c1nc2sc(Cl)cn2c1/C=N/N=C(N)N`: the TGI in assay [1] is 23.2 µM; in assay [2], 48.3 µM; in assay [4], 32.3 µM.
For `NC(CCC(=O)NC(CCC(=O)NO)C(=O)NCC(=O)O)C(=O)O` (configuration not stated) (γGlu-Glu(NHOH)-Gly-OH; configuration not given here), the TGI in assay [1], in assay [2], in assay [3] and in assay [4] was above 100 µM in each case.
`CCOC(=O)Cn1nnc2ccc(Nc3nc4ccccc4nc3C(=O)OCC)cc21`: the TGI in assay [1], in assay [2], in assay [3] and in assay [4] was above 100 µM each time.
Take `COc1ccc(C2c3cc4c(cc3OC(N3CCOCC3)C2C)OCO4)cc1OC` (configuration not stated): the TGI was 77.9 µM in assay [1], 25.4 µM in assay [2], 4.65 µM in assay [3] and above 100 µM in assay [4].
With `O=[N+]([O-])C1=Cc2c(O)ccc(O)c2C2OC=CC12` (configuration not stated), the TGI in assay [1] is above 46.8 µM; in assay [2], 29.4 µM; in assay [3] it was 11.4 µM; in assay [4], 26.2 µM.
Take `Cc1cccc(C)c1NC(=S)N/C=C(\C#N)C(N)=O`: the TGI in assay [1], in assay [2], in assay [3] and in assay [4] was above 100 µM throughout.
Consider `c1ccc(C/C(=N\Nc2nc3ccccc3[nH]2)c2ccccn2)cc1`, for which the TGI is 6.85 µM in assay [1], 1.58 µM in assay [2], 12.8 µM in assay [3] and 4.65 µM in assay [4].
Turning to `COP(=O)(OC)[C@@](O)(c1ccccc1)[C@@H](O)[C@H](O)c1ccccc1`, the TGI in assay [1], in assay [2], in assay [3] and in assay [4] was above 100 µM in each case.
In the case of `CCCCOc1ccc(/C=C/C2=[N+](CCO)CCO2)cc1`, the TGI was above 100 µM in assay [1], 63.3 µM in assay [2], above 100 µM in assay [3] and above 100 µM in assay [4].
In the case of `C[C@]12CC[C@H]3[C@@H](CC=C4C[C@@H](N5CCCC5)CC[C@@]43C)[C@@H]1C/C(=C\c1ccc([N+](=O)[O-])cc1)[C@@H]2O`, the TGI in assay [1] worked out at 4.99 µM; in assay [2], 57.8 µM; in assay [4], 28.3 µM.
For the molecule `CN1CCN(c2n[nH]c(=O)c3c2nnn3Cc2ccccc2)CC1`, the TGI in assay [1] was above 100 µM; in assay [2], above 100 µM; in assay [3] it was 40.1 µM; in assay [4], above 100 µM.
For `CCN1CC2=C(OC(N)=C(C#N)C2c2ccc(Cl)cc2)/C(=C/c2ccc(Cl)cc2)C1` (configuration not stated), the TGI in assay [1] was above 100 µM; in assay [2] it was 31.9 µM; in assay [3], above 100 µM; in assay [4], above 100 µM.
As for `Cc1cccc(-c2cc(=O)c3cccnc3[nH]2)c1`, the TGI in assay [1] is above 100 µM; in assay [2] it was above 100 µM; in assay [4], 52.3 µM.
As to `CCN(CC)P(=O)(c1ccc2c(c1)OCCOCCOCCOCCO2)N(CC)CC`, the TGI in assay [1], in assay [3] and in assay [4] was above 100 µM in each case.
As to `COc1cc(O)c2c(=O)c3cccc(C)c3[nH]c2c1`, the TGI in assay [1], in assay [2], in assay [3] and in assay [4] was above 10 µM in each case.
For the molecule `O=C(O)CSC1=NCCN1`, the TGI in assay [1], in assay [2], in assay [3] and in assay [4] was above 100 µM each time.
For `COC(=O)[C@H](Cc1ccccc1)NC(=O)N(CCN(CCC#N)C(=O)N[C@H](C(=O)OC)C(C)C)c1ccccc1`, the TGI in assay [1], in assay [2], in assay [3] and in assay [4] was above 100 µM each time.
For `COC(=O)C12C(=O)CC3CCC1C32C(=O)OC` (configuration not stated), the TGI in assay [1], in assay [2], in assay [3] and in assay [4] was above 100 µM each time.
As for `Cc1c2ccccc2c(/C=N/NC(=O)CSCC(=O)N/N=C/c2c3ccccc3c(C)c3ccccc23)c2ccccc12`, the TGI in assay [1] was above 87.8 µM; in assay [2] it was 54.9 µM; in assay [4], above 100 µM.
As to `CCCCOC(=O)Nc1ccc(S(=O)(=O)Nc2c(Cl)cccc2Cl)cc1`, the concentration for total growth inhibition (TGI) in assay [1] was 88.4 µM; in assay [2], above 100 µM; in assay [3] it was above 100 µM; in assay [4], 28 µM.
Regarding `COc1cc2c(c3nc4ccccc4nc13)-c1ccc(SC)c(=O)cc1[C@@H](NC(C)=O)CC2`, the TGI in assay [1], in assay [2] and in assay [4] was above 100 µM in each case.
Turning to `Cc1cc(C)c2c(-c3ccccc3)cc(=O)[nH]c2c1`, the TGI in assay [1], in assay [2], in assay [3] and in assay [4] was above 100 µM each time.
As for `Cc1ccc(N=NC(=Nc2ccc(F)cc2)c2ccc(N(CCC#N)CCC#N)cc2)cc1`, the TGI in assay [1], in assay [2], in assay [3] and in assay [4] was above 100 µM throughout.
Regarding `CC1=NN(c2ccccc2)C(=O)/C1=C1\SC(c2ccccc2)(c2ccccc2)c2ccccc21`, the TGI in assay [1], in assay [2], in assay [3] and in assay [4] was above 100 µM each time.
As to `CCOC(=O)N1CCC2(CC1)C[C@](Sc1ccccc1)(C(C)=O)[C@H](C)O2`, the TGI in assay [1], in assay [2], in assay [3] and in assay [4] was above 100 µM throughout.
Regarding `O=C1O/C(=C(\Br)c2ccc([N+](=O)[O-])cc2)c2ccccc21`, the TGI in assay [1] is above 69.1 µM; in assay [2] it was above 100 µM; in assay [3], above 100 µM; in assay [4], above 100 µM.
With `O=[N+]([O-])C(/C(Cl)=C(/Cl)N1CCOCC1)=C1\Nc2ccccc2O1`, the TGI in assay [1] is above 100 µM.
As for `O=C(Nc1ccc(Cl)cc1)c1cc(S(=O)(=O)Nc2nc3ncccc3[nH]2)c(SSc2cc(Cl)c(C(=O)Nc3ccc(Cl)cc3)cc2S(=O)(=O)Nc2nc3ncccc3[nH]2)cc1Cl`, the TGI in assay [1], in assay [2], in assay [3] and in assay [4] was above 100 µM in each case.
As to `O=C(CN1CCCCC1)c1ccc2[nH]c(=O)oc2c1`, the TGI in assay [1], in assay [2], in assay [3] and in assay [4] was above 100 µM in each case.
In the case of `CN(C)c1ccc(-c2c(C#N)c(-c3ccccc3)n(NS(=O)(=O)c3ccccc3)c(=O)c2C#N)cc1`, the TGI was 55.8 µM in assay [1], above 100 µM in assay [2], above 100 µM in assay [3] and 46.8 µM in assay [4].
As for `C/C(=N/NC(=S)N1CCCCCC1)c1cccc(/C(C)=N\NC(=S)N2CCCCCC2)n1`, the TGI in assay [1] turned out to be 6.34 µM; in assay [2], 3.69 µM; in assay [3] it was 4.9 µM; in assay [4], 2.72 µM.
Consider `CC(C)(C)c1ccc(O)c(C(O)c2ccccn2)c1` (configuration not stated), for which the TGI in assay [1], in assay [2] and in assay [3] was above 100 µM each time.
For `N#C/C=C(/NC(=O)Nc1ccccc1)N1CCCC1`, the TGI in assay [1], in assay [2], in assay [3] and in assay [4] was above 100 µM each time.
For `CCCCCCc1cc2cc(C(=O)Nc3nc(C45CC6CC(CC(C6)C4)C5)cs3)c(=O)oc2cc1O`, the TGI in assay [1] was determined as 49.5 µM; in assay [2], 30.6 µM; in assay [3], 40.2 µM; in assay [4] it was 24.7 µM.
Take `O=C(CSc1nc2ccccc2c(=O)n1-c1ccccc1)N=Nc1c(O)[nH]c2ccc(Br)cc12`: the TGI in assay [1] is above 29.4 µM; in assay [2], 7.68 µM; in assay [3], 16.9 µM; in assay [4] it was above 20.6 µM.
As to `CC(C)(C)OC(=O)C1C(=O)NC(=O)CC1C(OCc1ccccc1)C(OCc1ccccc1)C(COCc1ccccc1)OCc1ccccc1` (configuration not stated), the GI50 (usually the concentration at which growth is held to half of that of the control) is 66 µM and 9.83 µM in assay [1]; 33.2 µM and 14.4 µM in assay [2]; > 100 µM and 28.4 µM in assay [4]. Moreover, the TGI in assay [1], in assay [2], in assay [3] and in assay [4] was above 100 µM each time.
For the molecule `O=C1CC(Nc2ccccc2)c2c(Cl)sc(Cl)c21` (configuration not stated), the TGI was found to be 5.18 µM in assay [1], 3.33 µM in assay [3] and 16.8 µM in assay [4].
Regarding `CCOC(=O)CCC(NC(=O)C(CC(=O)OC)NC(=O)OCc1ccccc1)C(=O)NC(CC(=O)OC)C(=O)NC(CCC(=O)OCC)C(=O)NC(CC(=O)OC)C(=O)NC(CCC(=O)OCC)C(=O)NC(CC(=O)OCC)C(=O)OCC` (configuration not stated) (Cbz-D(OMe)E(OEt)D(OMe)E(OEt)D(OMe)E(OEt)D(OEt)-OEt; configuration not given here), the TGI in assay [1], in assay [3] and in assay [4] was above 100 µM each time.
Turning to `COC(=O)/C(=C(/C)c1ccco1)P(=O)(OC)OC`, the TGI in assay [1], in assay [2] and in assay [4] was above 100 µM each time.
For `Cc1ccc(S(=O)(=O)N(CC(O)COc2ccccc2)c2c(F)c(F)c(F)c(F)c2F)cc1` (configuration not stated), the TGI in assay [1] is 56.4 µM; in assay [3], 32.7 µM; in assay [4], 25.5 µM.
For `CC1=C[C@H](C[C@]2(C)c3c(c4c(C)cccc4oc3=O)O[C@@H]2C)OC1=O`, the values for the TGI in assay [1], in assay [3] and in assay [4] were 72.3 µM, above 100 µM and above 100 µM, respectively.
